Columns and labels:
[1] = test system: CCl4-induced mouse liver fibrosis model; test: In vivo efficacy test in CCl4-induced mouse liver fibrosis model; design: species or system Male C57BL/6 mice; details: oral gavage, day 1 to day 28 of CCl4 modeling, vs. model group (FIG. 14)
Experimental: Male C57BL/6 mice, 22-27 grams in weight, purchased from Shanghai Lingchang Biotechnology Co., Ltd.
Mice were transferred to the experimental area after one week of quarantine and adaptation. Animals were randomly divided into groups according to body weight and housed in cages at 5 mice per cage. 20% CCl4 solution with CCl4: Olive oil=1:4 was prepared by dissolving CCl4 in olive oil at a dose of 0.5 μl/g in mice. The mice of model group were orally three times a week for 4 weeks for molding, and the mice of normal control group was administrated only with the same volume of olive oil orally. The subject compounds were administered orally by oral gavage in a volume of 10 ml/kg per animal. The Day 1 of CCl4 modeling was initiated while dosing was initiated until day 28. At the end of the experiment, animal liver samples were collected for histopathological analysis.

[2] = Solid stability test of crystal form A (high temperature, high humidity, strong light); assay type: physicochemical
Description: The samples were respectively placed in a high-temperature, high-humidity and strong-light storage container. The samples were taken at 5 and 10 days after placing, and the test results were compared with the initial test results at 0 days.

[3] = test system: MCD-induced mouse NASH model; test: In vivo efficacy test in MCD-induced mouse NASH model; design: species or system C57BL/6 male mice; details: dosing from week 5 of 8 weeks MCD feed, vs. model group (FIG. 13)
Experimental: SPF grade C57BL/6 male mice, 22-25 grams in weight.
MCD: methionine/choline deficient feed.
Liver Propylene Analytical Reagents: hematoxylin dyeing liquid, eosin dyeing liquid and Picro sirius dyeing liquid.
After the animals were adapted for one week in the facility, the normal control group was still fed with the normal feed, and other animals were fed with MCD feed instead. The drinking water didn't change and the feed was replaced once every 48 hours. Beginning at week 5, the remaining groups, except the normal control and model groups, were administrated with subject compound. The Experiment lasted for a total of 8 weeks. At the end of the experiment, animal liver samples were collected for histopathological analysis.

Crystal form ([2]; High Humidity (25° C./Relative Humidity 90%, Open), Day 5): Crystal form A
Crystal form ([2]; High Humidity (25° C./Relative Humidity 90%, Open), Day 10): Crystal form A
Crystal form ([2]; High Temperature (60° C., Open), Day 5): Crystal form A
Crystal form ([2]; High Temperature (60° C., Open), Day 10): Crystal form A
Crystal form ([2]; Strong light (5000 lx, closed), Day 5): Crystal form A
Crystal form ([2]; Strong light (5000 lx, closed), Day 10): Crystal form A
Solid stability (conclusion) ([2]; high temperature, high humidity and strong light): good stability
Crystal form ([2]; initial, Day 0): Crystal form A
Structure (SMILES): Cc1cc(F)c(C(=O)Nc2cccc(-c3nnc4n3CCCC4)n2)cc1-n1cnc(C2CC2)c1 [Crystal form A]
Effect on liver fibrosis (liver histopathology) ([1]; 3 mg/Kg BID): significant effect on improving liver fibrosis
Effect on liver fibrosis (liver histopathology) ([1]; 30 mg/Kg BID): significant effect on improving liver fibrosis
Effect on liver fibrosis (liver histopathology) ([3]; 6 mg/Kg BID): significant effect on improving liver fibrosis
Effect on liver fibrosis (liver histopathology) ([3]; 60 mg/Kg BID): significant effect on improving liver fibrosis

Source: US11814382B2 (FUJIAN COSUNTER PHARMACEUTICAL CO., LTD., priority 2018, dated 2023)
